Experiments:
FKBP5 [1] = assay: FKBP5 transcription in isolated human monocytes, B cells and Tregs; type: cell-based; conditions: Experiment 1: 20 nM payload, 1 day
Excerpt: Monocytes or B cells were isolated from healthy donor blood samples and treated with free steroid, anti-VISTA conjugated steroid, or conjugated isotype control. RNA was isolated, and change in FKBP5 transcript level assessed by qPCR.
The various immune populations were isolated using different cell isolation kits and following manufacturer instructions: • EasySep Human monocyte enrichment kit without CD16 depletion (StemCell cat #19058) • Pan B cell isolation kit, human (Miltenyi Biotec, 130-101-638). • EasySep™ Human CD4+CD127 low CD49d-regulatory T cell enrichment Kit (StemCell cat #19232)
Monocytes, B cells or Tregs were plated (from single donors) at 2×10^6 cells per well in a 12-well plate in RPMI, 10% human AB serum, 10 mM Hepes, 1× Penicillin/Streptomycin/Glutamine.
For single dose experiments, cells were treated with 20 nM free J payload or INX-SM-3 payload or the molar payload equivalent of huIgG1si J, INX201J or INX231P (the linked form of INX-SM-3). […]
After one wash with PBS, RNA was isolated from cell pellets using either the RNeasy Plus Mini kit (Qiagen, PN: 74136) or NucleoSpin RNA Plus (Macherey-Nagel #740984.250). […] RNA concentration was assessed by UV spectroscopy using a Nanodrop 2000. […]
Quantitative Real-Time PCR was done using Taqman master mix 2× kit (#4369016) and run on a QuantStudio3 from Applied Biosystem. […]

[2] = Linker payload and released payload in serum and peripheral blood leukocytes (MS); type: in vivo, cynomolgus monkey; conditions: INX234P 15 mg/Kg i.v., analyte as labelled
Description: MS quantification was performed by Quintara Discovery on cell pellets and on serum.
Briefly, cell pellets were suspended with 100 μL of 20% methanol.
Normalization of the data to cell volume (ng/ml) was done by first calculating the cell numbers based on the PBL or WBC hematological count and the fixed volume for each sample processed for MS. We then converted to volume by using the arbitrary mean corpuscular volume (MCV) of […] per cell that is the most frequently adopted (3).
Each plasma sample was extracted with acetonitrile: methanol containing internal standard (Verapamil).

FKBP5 [3] = assay: FKBP5 transcription in peritoneal resident macrophages (PRM) and spleen cells after in vivo treatment; parameters: species or system hVISTA mice; conditions: linker payloads as anti-VISTA conjugates
[4] = system: peritoneal resident macrophages (PRM); assay: In vivo treatment/ex vivo PRM activation, TNFα and IL-6 in supernatant; parameters: species or system hVISTA mice; conditions: for preventing ex vivo induction of TNFα and IL-6 in PRM: Experiment 9: linker payloads as conjugates, 7 days post 0.2 mg/Kg of GC payload, supernatant 24h; for potency in PRM cytokine model when dosed 7 days early (conclusions) / controlling cytokine response in PRM when dosed 14 days early (conclusions): linker/payloads as anti-VISTA conjugates
Description: Based thereon we developed a model to allow us to evaluate long-term anti-inflammatory impact of ADC on specific target populations, such as PRMs. […] In the absence of GC treatment, after 2h PRMs become highly activated as shown by increases in cytokine production. […] The objective of these studies was to evaluate the efficacy and pharmacodynamic range of INX human VISTA antibodies conjugated to a glucocorticoid payload as compared to free Dex.
After euthanasia, mice were injected in the peritoneal cavity with 7 ml of PBS/0.5% BSA/2 mM EDTA. After a brief massage of the peritoneum, a small incision was performed and the peritoneal lavage collected. PRM were isolated using negative selection (Miltenyi kit, ref 130-110-434). Spleen were dissected and dissociated mechanically; monocytes were isolated using […] (Stem Cell, EasySep™ Mouse CD11b Positive Selection Kit II).
PRMs were resuspended in RPMI 1640 with 10% FBS, 10 mM Hepes, Penicillin/Streptomycin and glutamine and 100,000 cells were plated per well in a 96-well tissue culture plate. Supernatants were collected at 2 and 24h post plating and stored at −80° C. […]
• BioLegend (cat #430904) ELISA MAX Deluxe Set Mouse TNF-α • BioLegend (cat #431304) ELISA MAX Deluxe Set Mouse IL-6
ELISAs were conducted following the manufacturer's included protocol.

[5] = system: LPS stimulated human PBMCs; assay: LPS stimulated human PBMC, IL-1β and IL-6 ELISA; type: cell-based
How it was run: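 Human PBMC (1-2 healthy donors), 150,000 cells/well, treated with test agents at 1,000 nM down to 1 nM or 0.2 nM, in duplicate. LPS at 1 ng/ml added immediately after free payload or 4 h after conjugates; IL-1β and IL-6 in supernatants measured by ELISA.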

C[C@]12C=CC(=O)C=C1CC[C@@H]1[C@@H]2[C@@H](O)C[C@@]2(C)[C@H]1C[C@H]1O[C@@H](c3ccc(Cc4cccc(N)c4)cc3)O[C@]12C(=O)CO [free J payload, reference compound]
FKBP5 transcription in monocytes and B cells (FKBP5 [1]): robust increase in FKBP5 transcription was observed with free J payload in both monocytes and B cells

C[C@]12C=CC(=O)C=C1CC[C@@H]1[C@@H]2[C@@H](O)C[C@@]2(C)[C@H]1C[C@H]1O[C@@H](c3ccc(CC45CC(NC(=O)[C@H](CCC(=O)O)NC(=O)CNC(=O)CSC[C@H](N)C(=O)O)(C4)C5)cc3)O[C@]12C(=O)CO [P-cys, (S)-4-(2-(2-(((R)-2-amino-2-carboxyethyl)thio)acetamido)acetamido)-5-((3-(4-((6aR,6bS,7S,8aS,8bS,10R,11aR,12aS,12bS)-7-hydroxy-8b-(2-hydroxyacetyl)-6a,8a-dimethyl-4-oxo-2,4,6a,6b,7,8,8a,8b,11a,12,12a,12b-dodecahydro-1H-naphtho[2′,1′:4,5]indeno[1,2-d][1,3]dioxol-10-yl)benzyl)bicyclo[1.1.1]pentan-1-yl)amino)-5-oxopentanoic acid]
serum level by day 8 (192 hr) post injection [2]: below detection
time of peak concentration in serum [2]: ~12 h
Kp ([2]; cynomolgus monkey, in vivo, read-out: intracellular (PBL) levels as compared to serum): 100

C[C@]12C=CC(=O)C=C1CC[C@@H]1[C@@H]2[C@@H](O)C[C@@]2(C)[C@H]1C[C@H]1O[C@@H](c3ccc(CC45CC(NC(=O)[C@H](CCCCN)NC(=O)CNC(=O)CBr)(C4)C5)cc3)O[C@]12C(=O)CO [INX W, (S)-6-amino-2-(2-(2-bromoacetamido)acetamido)-N-(3-(4-((6aR,6bS,7S,8aS,8bS,10R,11aR,12aS,12bS)-7-hydroxy-8b-(2-hydroxyacetyl)-6a,8a-dimethyl-4-oxo-2,4,6a,6b,7,8,8a,8b,11a,12,12a,12b-dodecahydro-1H-naphtho[2′,1′:4,5]indeno[1,2-d][1,3]dioxol-10-yl)benzyl)bicycle[1.1.1]pentan-1-yl) hexanamide]
FKBP5 induction when dosed 14 days early (conclusions) (FKBP5 [3]): still display significant potency when dosed 14 days early in regard to FKBP5 induction
preventing ex vivo induction of TNFα and IL-6 in PRM [4]: remarkable long-term potency in controlling cytokine responses
potency in PRM cytokine model when dosed 7 days early (conclusions) [4]: remarkably more potent than payloads INX P and INX R when dosed 7 days early

C[C@]12C=CC(=O)C=C1CC[C@@H]1[C@@H]2[C@@H](O)C[C@@]2(C)[C@H]1C[C@H]1O[C@@H](c3ccc(CC4CC5(C4)CC(NC(=O)[C@H](CC(N)=O)NC(=O)CNC(=O)CBr)C5)cc3)O[C@]12C(=O)CO (stereo partly drawn) [INX A11, (S)-2-(2-(2-bromoacetamido)acetamido)-N1-(6-(4-((6aR,6bS,7S,8aS,8bS,10R,11aR,12aS,12bS)-7-hydroxy-8b-(2-hydroxyacetyl)-6a,8a-dimethyl-4-oxo-2,4,6a,6b,7,8,8a,8b,11a,12,12a,12b-dodecahydro-1H-naphtho[2′,1′:4,5]indeno[1,2-d][1,3]dioxol-10-yl)benzyl)spiro[3.3]heptan-2-yl) succinamide]
FKBP5 induction when dosed 14 days early (conclusions) (FKBP5 [3]): still display significant potency when dosed 14 days early in regard to FKBP5 induction
potency of conjugated linker payloads over INX J (conclusions) [5]: enhanced potency
controlling cytokine response in PRM when dosed 14 days early (conclusions) [4]: significant potency in controlling cytokine response in PRM when dosed 14 days early

C[C@]12C=CC(=O)C=C1[C@@H](F)C[C@H]1[C@@H]3C[C@H]4O[C@@H](c5ccc(CC67CC(NC(=O)[C@H](CCC(=O)O)NC(=O)CNC(=O)CBr)(C6)C7)cc5)O[C@@]4(C(=O)CO)[C@@]3(C)C[C@H](O)[C@@]12F [INX S, (S)-4-(2-(2-bromoacetamido)acetamido)-5-((3-(4-((2S,6aS,6bR,7S,8aS,8bS, 10R,11aR,12aS,12bS)-2,6b-difluoro-7-hydroxy-8b-(2-hydroxyacetyl)-6a,8a-dimethyl-4-oxo-2,4,6a,6b,7,8,8a,8b,11a,12,12a,12b-dodecahydro-1H-naphtho[2′,1′:4,5]indeno[1,2-d][1,3]dioxol-10-yl)benzyl)bicyclo[1.1.1]pentan-1-yl)amino)-5-oxopentanoic acid]
FKBP5 induction when dosed 14 days early (conclusions) (FKBP5 [3]): still display significant potency when dosed 14 days early in regard to FKBP5 induction
FKBP5 induction in splenic cells (conclusions) (FKBP5 [3]; day 1, 7, 14): Significant FKBP5 induction is seen at day 1, 7, and 14 in splenic cells
preventing ex vivo induction of TNFα and IL-6 in PRM [4]: remarkable long-term potency in controlling cytokine responses
controlling cytokine response in PRM when dosed 14 days early (conclusions) [4]: significant potency in controlling cytokine response in PRM when dosed 14 days early
potency in PRM cytokine model when dosed 7 days early (conclusions) [4]: remarkably more potent than payloads INX P and INX R when dosed 7 days early

C[C@]12C=CC(=O)C=C1CC[C@@H]1[C@@H]2[C@@H](O)C[C@@]2(C)[C@H]1C[C@H]1O[C@@H](c3ccc(OC4CC5(CC(NC(=O)[C@H](CCC(=O)O)NC(=O)CNC(=O)CBr)C5)C4)cc3F)O[C@]12C(=O)CO (stereo partly drawn) [INX A5, (S)-4-(2-(2-bromoacetamido)acetamido)-5-((6-(3-fluoro-4-((6aR,6bS,7S,8aS,8bS,10R,11aR,12aS,12bS)-7-hydroxy-8b-(2-hydroxyacetyl)-6a,8a-dimethyl-4-oxo-2,4,6a,6b,7,8,8a,8b,11a,12,12a,12b-dodecahydro-1H-naphtho[2′,1′:4,5]indeno[1,2-d][1,3]dioxol-10-yl)phenoxy)spiro[3.3]heptan-2-yl)amino)-5-oxopentanoic acid]
FKBP5 induction when dosed 14 days early (conclusions) (FKBP5 [3]): still display significant potency when dosed 14 days early in regard to FKBP5 induction
potency of conjugated linker payloads over INX J (conclusions) [5]: enhanced potency
controlling cytokine response in PRM when dosed 14 days early (conclusions) [4]: significant potency in controlling cytokine response in PRM when dosed 14 days early
